Publication PMC7853623, “Dose- and time-dependent tolerability and efficacy of organo-osmium complex FY26 and its tissue pharmacokinetics in hepatocarcinoma-bearing mice” (Metallomics: Integrated Biometal Science, 2020)

Experiments:
[1] = Comparative maximum aqueous solubility study (ICP-OES); type: physicochemical; settings: doubly deionized water, 24 h shaking, ambient 18–20°C, mean ± SD of N = 3
Protocol: One to five milligrams of FY26⋅PF6 or FY26⋅I, and 180 mg of FY26⋅Cl were dispensed into Falcon tubes in triplicates, then 1 ml of doubly deionized water (DDIW) was added. The Falcon tubes were placed on a Vibrax VXB basic shaker (Sigma-Aldrich, Dorset, UK) for 24 h at a speed of […] (ambient temperature 18–20°C), and were checked at intervals (further solids were added if total saturation appeared to occur). The samples were filtered through syringe filters (PTFE, 0.45 µm, 4 mm) to remove any undissolved solids. The concentrations of Os in the solutions were measured using inductively coupled plasma-optical emission spectroscopy (ICP-OES) (Agilent, Stockport, UK).
Analyses of FY26 solutions were carried out on a Perkin-Elmer (optical emission spectrometer) Optima 5300 DV instrument. All samples and standards were prepared fresh on the day in DDIW with distilled HNO3 (3.2%), thiourea (5 mM), and ascorbic acid (0.1 g/l). The osmium standard was diluted to the following concentrations for the calibration curve: 0, 25, 50, 100, 200, 400, 600, 800, and 1000 ppb. The samples were diluted by serial dilutions of typically 1 in 10 until their concentrations fitted within the calibration range and % total dissolved solids were below 0.2%. Samples were prepared in triplicates and the Os optical emissions at 228.226 and 225.585 nm were detected and integrated.

[2] = system: Hepa1–6-Per2-luc hepatocarcinoma tumours; assay: Antitumour efficacy in Hepa1–6-bearing nude mice (Experiments 1 and 2); type: in vivo, CD1-Foxn1^nu mice
Protocol: (§1) Male CD1-Foxn1^nu or C57Bl/6 (B6) mice aged 5–10 weeks (Janvier, Le Genest St Isle, France) were housed in groups of three to four mice per cage in temperature-controlled (23 ± 1°C), ventilated (100 ± 10 l/min), and light-tight chronobiological animal facilities (Eurobioconcept, Bonneuil s/Marne, France). They were synchronized with an alternation of 12 h of light (L) and 12 h of darkness (D) (LD12:12), with light starting at 07:00, and had ad libitum access to food and water throughout all the experiments. In line with convention, onset of light and that of darkness are referred to as Zeitgeber time 0 (ZT0) and ZT12, respectively. After one or more weeks on this regimen and on the day prior to tumour inoculation, both flanks of each B6 mouse were shaved using clippers.
Mouse hepatocarcinoma (Hepa1–6, ATCC® CRL-1830™) was kindly provided by S. Dulong (INSERM U935, Villejuif, France), following their stable transfection with the Per2-luc [pLV7-Bsd-P(Per2)-dLuc] reporter constructs within the C5SYS ERASYSBIO+ project (FP7). Mouse Hepa1–6-Per2-luc cells were cultured in 15-cm Petri dishes until they reached 80% confluency. On the day of tumour inoculation, the cells were trypsinized and resuspended at a concentration of 10^6 cells/100 µl in PBS solution alone (Experiments 1 and 2) or with 1:1 MatriGel™ (Corning, Flintshire, UK) (Experiments 3–5) and kept on ice until injected.
(§2) The mice, aged 8–10 weeks, were anesthetized under isoflurane and Hepa1–6-Per2-luc cells were injected subcutaneously in both postero-lateral flanks of each mouse. Mice were then inspected and weighed daily until experiment completion. Tumour sites were inspected daily until tumours became palpable and amenable to daily measurements of perpendicular diameters using callipers. Measurements were always taken at the same circadian time.
(§3) Mean daily tumour weight per mouse was calculated as the average volume of the right and left flank tumours according to (L × W^2)/2, where L is the larger and W the smaller perpendicular diameter, and 1 cm^3 corresponds to 1 g. Mice with an estimated tumour weight exceeding 10% of their body weight or those in poor general condition or loosing >15% of their starting body weight were euthanized, in compliance with our Home Office Project Licence specifications approved by the Animals in Science Committee and Animal Welfare and Ethical Review Body.
Experiment 1 aimed at the determination of a therapeutic dose of the less soluble FY26⋅PF6 formulation. Hepa1–6-bearing nude mice were randomly assigned to be injected intraperitoneally (ip) with vehicle (controls), or 40, 60, or 80 mg/kg/injection of FY26⋅PF6 at ZT6 (in the middle of the light span) every other day for 12 days (Table 1).
Experiment 2 aimed at assessing whether FY26⋅PF6 circadian timing would influence toxicity or efficacy in the nude mouse model. The animals were randomly assigned to receive ip vehicle or FY26⋅PF6 (50 mg/kg/injection) at ZT6 or at ZT18 (four controls and six treated mice per ZT) every other day for 11 days (six injections; cumulative dose, 300 mg/kg). […]
(§4) Body weight data were expressed as % body weight measured on the first treatment day. Tumour weights for individually treated mice were expressed as % of the median control values, in order to determine % inhibition. […]

[3] = Tolerability in Hepa1–6-bearing nude mice (Experiments 1 and 2); type: in vivo, CD1-Foxn1^nu mice
Protocol: as §1, §2, §3
Experiment 1 aimed at the determination of a therapeutic dose of the less soluble FY26⋅PF6 formulation. […]
as §4

A2780 cells = system: A2780 cells; parameters: method as in PMID 26162681; settings: previously reported ref 18; cited from earlier work
[4] = system: 809 cancer cell line screen; parameters: method as in PMID 26162681; settings: on average, 809 cancer cell lines ref 18; cited from earlier work
[5] = system: A2780 ovarian cancer cells over MRC-5 fibroblasts; parameters: method as in PMID 26397305; settings: applied synergistically with L-buthionine sulfoximine (L-BSO) ref 19; cited from earlier work
Hepa1–6 cells = system: Hepa1–6 cells; parameters: method as in ref 21, 22 = [21]; 21. Abraham K. , Dallmann R. , Ballesta A. , Romero-Canelon I. , Sadler P. J. , Lévi F. A. , In v itro circadian synchronisation of mouse hepatocarcinoma cells with 24 h temperature cycles uncovers in || [22]; 22. Abraham K. , In vitro and in vivo chronopharmacology of a new generation of an organometallic anticancer drug complex . Ph.D. thesis , University of Warwick , Coventry, UK , 2018 .; settings: Hepa1–6 cells synchronized with a 24-h periodic temperature cycle ref 21, 22; cited from earlier work
[6] = system: HCT-116 human colon cancer xenografts; parameters: method as in ref 13 = [13]; 13. Shnyder S. D. , Fu Y. , Habtemariam A. , van Rijt S. H. , Cooper P. A. , Loadman P. M. , Sadler P. J. , Anti-colorectal cancer activity of an organometallic osmium arene azopyridine complex , Med.; settings: HCT-116 xenografts in mice ref 13; cited from earlier work
[7] = Tolerability (survival, body weight) in Hepa1–6-bearing C57Bl/6 mice (Experiments 3 and 4); type: in vivo; settings: Experiment 4 (FY26⋅Cl)
Protocol: as §1, §2, §3
Experiment 3 aimed at assessing the efficacy and tolerability of the more soluble formulation of FY26⋅Cl in Hepa1–6-bearing C57Bl/6 mice. The mice were randomized to receive vehicle or FY26⋅Cl, at a cumulative dose of 60 mg/kg. Treated mice received ip injections of 20 mg/kg of FY26⋅Cl at ZT6 12, 14, and 17 days after tumour inoculation. Control mice received ip vehicle on the same days.
Experiment 4 aimed at confirming efficacy and optimizing timing and scheduling of the same cumulative dose of 60 mg/kg of FY26⋅Cl. Mice were randomized to receive either vehicle or FY26⋅Cl as four injections of 15 mg/kg at ZT6 or ZT18 on days 11, 14, 17, and 21.
For Experiments 1 and 2, FY26⋅PF6 was diluted in the vehicle, composed of 1% Tween 80 (Sigma-Aldrich, Gillingham, UK), 5% DMSO (Corning, New York, USA) and 94% of 0.9% saline (Prep room, Life Sciences, University of Warwick) under laminar flow. FY26⋅PF6 concentration was confirmed with ICP-MS. For Experiments 3–5, using FY26⋅Cl, a stock solution of 50 mg/ml FY26⋅Cl was prepared in 0.9% saline on the day of injection and diluted as required; the vehicle consisted of 0.9% saline.
(§5) Body weight data were expressed as % body weight measured on the first treatment day. Tumour weights for individually treated mice were expressed as % of the median control values, in order to determine % inhibition. Mean and standard error or median and interquartiles were computed for the different treatment groups and experimental conditions, i.e. drug timing and day of assessment. Groups were compared using parametric or non-parametric ANOVAs, respectively.

[8] = Body weight change after a single ip dose (Experiment 5); type: in vivo, C57Bl/6 mice; settings: single ip dose 5, 10 or 20 mg/kg (FY26⋅Cl), 24 and 48 h, all mice
Protocol: (§6) Experiment 5 determined FY26⋅Cl uptake in mouse tumour and liver. Hepa1–6-bearing mice were randomly assigned to either treatment or control groups. They received a single ip injection of 5, 10, or 20 mg/kg of FY26⋅Cl or 0.1 M PBS (vehicle) at ZT6 (Table 1). The mice from pre-set subgroups were culled at 6, 24, or 48 h after injection. The subcutaneous tumours in both flanks, as well as liver, spleen, one kidney, an ileum, and a colon segment and brain were sampled and stored at −80°C.
as §5

[9] = system: Hepa1–6-Per2-luc hepatocarcinoma tumours; assay: Tumour volume after a single ip dose (Experiment 5); type: in vivo, C57Bl/6 mice; settings: single ip dose 5, 10 or 20 mg/kg (FY26⋅Cl)
Protocol: as §2, §3
as §6, with “The subcutaneous tumours in both flanks, as well as liver, spleen, one kidney, an ileum, and a colon segment and brain were sampled and stored at −80°C.” left out

[10] = parameters: method as in PMID 20977192; settings: 24 h incubation at 37°C, pH 7.4 ref 12; cited from earlier work
[11] = parameters: method as in ref 22 = [22]; 22. Abraham K. , In vitro and in vivo chronopharmacology of a new generation of an organometallic anticancer drug complex . Ph.D. thesis , University of Warwick , Coventry, UK , 2018 .; settings: mice ref 22; cited from earlier work
[12] = parameters: method as in PMID 9144445; settings: cisplatin in BSO-treated mice ref 36; cited from earlier work

CN(C)c1ccc(N=Nc2ccccn2)cc1.Cc1ccc(C(C)C)cc1.F[P-](F)(F)(F)(F)F.[I-].[Os+2] [FY26⋅PF6, [Os^II(ɳ^6-p-cym)(PhAzPy-NMe2)I]PF6]
maximum aqueous solubility [1]: 0.0201 (±0.0007) mM | tumour inhibition efficacy ranking ([2]; Experiment 1, 40 mg/kg/injection ip at ZT6 every other day): intermediate | tumour inhibition efficacy ranking ([2]; Experiment 1, 60 mg/kg/injection ip at ZT6 every other day): least | tumour inhibition efficacy ranking ([2]; Experiment 1, 80 mg/kg/injection ip at ZT6 every other day): highest | efficacy according to dosing time ([2]; Experiment 2, 50 mg/kg/injection ip, ZT6 versus ZT18): slightly better efficacy at ZT6 | tumour growth ([2]; Experiment 2, 50 mg/kg/injection ip, after the sixth dose): slowed down transiently | toxicity of the higher dose ([3]; Experiment 1, 80 mg/kg/injection, all mice euthanized after up to five injections (cumulative 400 mg/kg)): clearly too toxic | body weight loss dose–response ([3]; Experiment 1, 40, 60 or 80 mg/kg/injection ip at ZT6): linear dose–response relation | body-weight loss at ZT6 as compared to ZT18 ([3]; Experiment 2, 50 mg/kg/injection ip): less pronounced | ROS induction (A2780 cells): did induce an increase in ROS | induction of apoptosis (A2780 cells): did not induce apoptosis | activity relative to cisplatin [4]: 49 times | selectivity towards A2780 over MRC-5 fibroblasts [5]: up to 64 times | variation of IC50 according to timing of in vitro drug exposure (Hepa1–6 cells): 40% | effect on xenograft growth [6]: capable of delaying the growth

CN(C)c1ccc(N=Nc2ccccn2)cc1.Cc1ccc(C(C)C)cc1.[I-].[I-].[Os+2] [FY26⋅I]
maximum aqueous solubility [1]: 1.29 (±0.01) mM

CN(C)c1ccc(N=Nc2ccccn2)cc1.Cc1ccc(C(C)C)cc1.[I-].[Os+2] [FY26, [Os^II(ɳ^6-p-cym)(PhAzPy-NMe2)I]^+]
body-weight loss according to dosing time ([7]; 15 mg/kg ip × 4, ZT18 versus ZT6): clearly worse at ZT18 | survival rate ([7]; 15 mg/kg ip × 4 at ZT6): 60% | survival rate ([7]; 15 mg/kg ip × 4 at ZT18): 30% | body weight changes [8]: < 5% | changes in tumour volumes [9]: No changes | hydrolysis in aqueous solution [10]: does not readily hydrolyse | best-tolerated dosing time [11]: near the middle of the light span

N.N.[Cl][Pt][Cl] [cisplatin]
reduction in average survival rate [12]: 5.7 fold
